This note sets out measurements from patent US10517946B2, “Polyelectrolyte multilayers assembled from immune signal compounds” (University of Maryland, College Park, priority 2015, dated 2019).

For one series, the target named is T1, TLR3 (Mus musculus, UniProt Q99MB1).
T1 construct: host or cells: HEK-Blue mTLR3 (HEK293-derived reporter cells)
T1 sequence (Q99MB1 26-905): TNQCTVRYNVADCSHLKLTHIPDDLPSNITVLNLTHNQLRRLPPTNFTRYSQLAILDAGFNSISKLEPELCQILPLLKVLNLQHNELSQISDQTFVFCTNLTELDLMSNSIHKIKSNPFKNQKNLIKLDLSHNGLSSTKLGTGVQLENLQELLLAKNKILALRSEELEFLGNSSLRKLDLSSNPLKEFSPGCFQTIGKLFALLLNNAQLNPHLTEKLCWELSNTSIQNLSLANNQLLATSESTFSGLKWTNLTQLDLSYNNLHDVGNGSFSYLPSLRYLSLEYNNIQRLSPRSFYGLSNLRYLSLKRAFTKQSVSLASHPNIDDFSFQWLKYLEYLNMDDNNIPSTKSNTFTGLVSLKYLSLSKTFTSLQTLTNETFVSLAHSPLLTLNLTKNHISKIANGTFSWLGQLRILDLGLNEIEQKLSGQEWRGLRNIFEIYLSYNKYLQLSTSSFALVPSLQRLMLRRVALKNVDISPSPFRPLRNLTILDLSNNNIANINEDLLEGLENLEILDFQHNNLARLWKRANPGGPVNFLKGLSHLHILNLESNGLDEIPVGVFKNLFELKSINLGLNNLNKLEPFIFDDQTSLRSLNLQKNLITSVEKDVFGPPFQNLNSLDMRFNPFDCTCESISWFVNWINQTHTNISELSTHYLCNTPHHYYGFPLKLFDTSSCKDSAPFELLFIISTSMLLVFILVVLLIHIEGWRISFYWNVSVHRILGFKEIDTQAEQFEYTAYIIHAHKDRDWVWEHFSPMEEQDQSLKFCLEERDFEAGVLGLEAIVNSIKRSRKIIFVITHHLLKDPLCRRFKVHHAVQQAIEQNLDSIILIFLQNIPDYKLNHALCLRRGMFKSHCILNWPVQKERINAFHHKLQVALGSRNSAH
The experiment in a line: TLR3 signaling in HEK-Blue mTLR3 cells (AuNP iPEMs). It is filed as cell-based. Particulars: 16 hours, absorbance 625 nm. Here is the method:
TLR3 signaling: TLR3 activity was assessed using HEK-Blue mTLR3 cells (Invivogen). Cells were seeded at a concentration of 5.0×10^4 cells per well, followed by treatment with Pam3CSK4 (0.2 μg/mL), LPS (1.0 μg/mL), polyIC (10 μg/mL), C-ODN (5 μg/mL), SIIN peptide (5 μg/mL), AuNPs (1.9×10^−2 mg/well), AuNP-(C-ODN/SIIN*)2 (80 μg/mL), or AuNP-(polyIC/SIIN*)2 (80 μg/mL). After 16 hours the absorbance was read at 625 nm using a UV/Vis platereader (Molecular Devices).

Series [1] deals with splenic CD11c+ DCs from B6 mice. The experiment in a line: Presentation of SIINFEKL via MHC-I by DCs. Type of series: cell-based, mouse. Particulars: anti-SIIN/MHC-I antibody. Here is the method: DC activation and antigen presentation: […] After incubation with iPEM-coated AuNPs, DCs were washed twice with PBS+1% BSA, then blocked in anti-CD16/CD32 (Fcγ III/II receptor) (25× dilution, BD Biosciences) for 15 min at room temperature. The cells were then stained with antibodies for CD80 (FITC), CD86 (AmCyan-A), and CD40 (PE). To quantify presentation of SIINFEKL (SEQ ID NO:15) via the MHC-I pathway, cells were stained with a PE-Cy7 labeled antibody (BioLegend) against anti-mouse H-2Kb bound to OVA257-264 (SIINFEKL (SEQ ID NO:15)). All antibodies were fluorescent conjugates and were used by staining for 20 min at a 1:300 dilution in PBS+1% BSA. Cells were then washed twice in PBS+1% BSA and resuspended in a DAPI solution for analysis by flow cytometry. The data analysis was performed with Flowjo (Treestar).

For a further series, the system named is primary DCs. It is filed as cell-based, mouse. Here is the method:
Cell internalization studies: Association and uptake of coated AuNPs by DCs was characterized by flow cytometry (FACS CantoII, BD Bioscience) and confocal microscopy (Leica SP5X). For flow cytometry, CD11c^+ splenic DCs were seeded in 96 well plates at a concentration of 1.0×10^5 cells per well. Uncoated AuNPs or AuNPs-(polyIC-Cy5/SIIN*-FITC)2 were then added to each well in a volume of 25 μL. Two-fold serial dilutions were performed using a starting iPEM/AuNPs concentration of 1.9 mg/mL. Cells were then cultured for 16 h. After incubation, cells were washed twice by centrifugation and re-suspended in FACS buffer (PBS+1% BSA). The washed cells were finally resuspended in a DAPI solution (0.1% in PBS+1% BSA) to allow assessment of viability by flow cytometry (i.e., DAPI^− cells). Cells positive for FITC and Cy5 signals compared with negative controls were considered to have associated with iPEMs.

A further series concerns OT-I CD8+ T cells. The series can be described thus: DC / OT-I CD8+ T cell co-culture, CFSE proliferation. Type of series: cell-based, mouse. The settings on record: T cells co-cultured with treated DCs. Here is the method: (§1) T cell co-culture, activation, and proliferation: […] Untreated cells were used as a negative control. After 48 h, T cells isolated from OT-I mice were stained with CellTrace™ CFSE cell proliferation reagent (5 μg/mL in cell culture medium) by incubation at room temperature for 5 min. T cells were then co-cultured with each DC sample by addition of 3.0×10^5 T cells per well. After an additional 48 h of incubation, cells were centrifuged (800 rcf for 5 min), the supernatants were collected for ELISA, and the cells were washed in PBS+1% FBS. Cells were then blocked as above and stained with anti-CD8a (APC) for 15 min at room temperature. Lastly, cells were washed twice and re-suspended in DAPI. T cell proliferation was determined by the mean fluorescence intensity (MFI) of CFSE signal among DAPI^−, CD8^+ cells compared with positive and negative controls.

The test system of series [2] is DC/OT-I T cell co-cultures. The experiment in a line: ELISA of cytokines in DC/T cell co-culture supernatants. Type of series: cell-based, mouse. Particulars: co-culture supernatant, SIIN-treated samples. Here is the method:
as §1, with “controls. ELISA: Cytokine levels in the supernatants collected from DCs/T cell co-cultures were analyzed by ELISA using mouse TNF, IFN-γ, and IL-1β ELISA reagents (BD Bioscience) according to the manufacturer's instructions. 10 μL of each supernatant was used in each test, and cytokine concentrations were quantified by comparison to standard curves prepared from known standards.” for “controls.”

In the case of Pam3CSK4, the TLR3 signaling entry at TLR3 is on record as “lack of signal”.
On to lipopolysaccharide [LPS], for which the TLR3 signaling entry at TLR3 is recorded as “lack of signal”. Moreover, in series [1], the “DCs presenting SIIN via MHC-I” value is on record as “baseline levels”.
For “Polyinosinic-polycytidylic acid [polyIC]”, the “DCs presenting SIIN via MHC-I” value in series [1] is listed as “baseline levels”. Further, in the series on primary DCs, the “viability of DCs relative to cells treated with LPS” value is 92.8%.
On to “SIINFEKL (Ovalbumin peptide model antigen) [SIIN peptide]”, for which, in the series on OT-I CD8+ T cells, the “OT-I T cell proliferation (CFSE dilution)” value is “proliferation of OT-I T cells”. In series [2], the cytokine secretion entry is “lack of cytokine secretion”.
